This note sets out measurements from patent US7138361B2, “Herbicidal heterocycles” (E. I. du Pont de Nemours and Company, priority 2000, dated 2006).

Assay in all cases: Test B preemergence
Type in all cases: in vivo

The subject of test [1] is Surinam grass (Brachiaria decumbens). The method in brief: (§1)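 Ratings on a 0 to 100 visual scale (100 complete control) compare treated plants with controls 13 to 15 days after application. Treatments were pre- or postemergence sprays of compound in non-phytotoxic solvent with surfactant.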
Test [2] relates to barnyardgrass (Echinochloa crus-galli). The method in brief:
as §1

The subject of test [3] is cocklebur (Xanthium strumarium). The gist of the method:
as §1

The subject of another test is corn (Zea mays). The gist of the method:
as §1

The test system of test [4] is crabgrass (Digitaria sanguinalis). The method in brief: as §1
Test [5] concerns giant foxtail (Setaria faberii). The gist of the method:
as §1

The test system of test [6] is lambsquarters (Chenopodium album). The method in brief:
as §1

In test [7] the test system is morning glory (Ipomoea hederacea). The gist of the method:
as §1

Test [8] has as its system pigweed (Amaranthus retroflexus). The gist of the method:
as §1

Another test relates to rice (Oryza saliva). The method in brief: as §1
Test [9] deals with velvetleaf (Abutilon theophrasti). The gist of the method:
as §1

Where [10] appears, read: Preemergence, Rate 500 g/ha, scale 0 to 100, 0 no effect, 100 complete control.
[11] abbreviates: preemergence, Rate 125 g/ha, scale 0 to 100, 0 no effect, 100 complete control.
[12] abbreviates: preemergence, Rate 125 g/ha, scale of 0 to 100 where 0 is no effect and 100 is complete control, 13 to 15 days.

With `CCC(C)c1nn(C2CCN(c3cccc(C(F)(F)F)c3)C2=O)cc1Cl` (stereo not shown) [Compound 13], the “Plant response rating, Surinam grass” value in test [1] (setting [10]) and in [1] (setting [11]) was 0 each time. For the same compound, the “Plant response rating, Barnyardgrass” value in test [2] (setting [10]) and in [2] (setting [11]) was 0 each time. For the same compound, the “Plant response rating, Cocklebur” value in test [3] (setting [10]) and in [3] (setting [11]) was 0 throughout. Besides, the “Plant response rating, Corn” value with corn (Zea mays) (setting [10]) and in the test on corn (Zea mays) (setting [11]) was 0 throughout. The “Plant response rating, Crabgrass” value in test [4] (setting [10]) and in test [4] (setting [11]) was 0 each time. For the same compound, the “Plant response rating, Foxtail, Giant” value in test [5] (setting [10]) and in [5] (setting [11]) was 0 throughout. Moreover, the “Plant response rating, Lambsquarters” value in [6] (setting [10]) and in test [6] (setting [11]) was 0 in each case. The “Plant response rating, Morningglory” value in [7] (setting [10]) and in test [7] (setting [11]) was 0 throughout. Besides, the “Plant response rating, Pigweed” value in test [8] (setting [10]) and in [8] (setting [11]) was 0 in each case. The “Plant response rating, Rice” value with rice (Oryza saliva) (setting [10]) and in the test on rice (Oryza saliva) (setting [11]) was 0 each time. The “Plant response rating, Velvetleaf” value in test [9] (setting [10]) and in [9] (setting [11]) was 0 in each case.
Take `CC1(c2ccn(C3OCN(c4cccc(OC(F)(F)F)c4)C3=O)n2)CC1` (stereo not shown) [Compound 69]: the “Plant response rating, Surinam grass” value in test [1] (setting [10]) and in [1] (setting [12]) was 20 in each case. The “Plant response rating, Barnyardgrass” value in test [2] (setting [10]) amounted to 40; in [2] (setting [12]), 20. In addition, the “Plant response rating, Cocklebur” value was found to be 20 in test [3] (setting [10]) and 0 in test [3] (setting [12]). Moreover, the “Plant response rating, Corn” value with corn (Zea mays) (setting [10]) and in the test with corn (Zea mays) (setting [12]) was 0 throughout. Besides, the “Plant response rating, Crabgrass” value in [4] (setting [10]) and in [4] (setting [12]) was 0 in each case. Further, the “Plant response rating, Foxtail, Giant” value in [5] (setting [10]) and in test [5] (setting [12]) was 0 in each case. Also, the “Plant response rating, Lambsquarters” value is listed as 100 in test [6] (setting [10]) and 90 in test [6] (setting [12]). Also, the “Plant response rating, Morningglory” value in [7] (setting [10]) and in test [7] (setting [12]) was 0 throughout. Further, the “Plant response rating, Pigweed” value in test [8] (setting [10]) is listed as 90; in [8] (setting [12]), 60. For the same compound, the “Plant response rating, Rice” value with rice (Oryza saliva) (setting [10]) and in the test with rice (Oryza saliva) (setting [12]) was 0 in each case. Besides, the “Plant response rating, Velvetleaf” value in [9] (setting [10]) and in [9] (setting [12]) was 0 throughout.
As to `CCC(CC)c1ccn(C2OCN(c3cccc(OC(F)(F)F)c3)C2=O)n1` (stereo not shown) [Compound 68], the “Plant response rating, Surinam grass” value in [1] (setting [10]) and in test [1] (setting [12]) was 0 each time. For the same compound, the “Plant response rating, Barnyardgrass” value in test [2] (setting [10]) and in test [2] (setting [12]) was 100 throughout. The “Plant response rating, Cocklebur” value in [3] (setting [10]) and in [3] (setting [12]) was 0 each time. Further, the “Plant response rating, Corn” value came to 20 with corn (Zea mays) (setting [10]) and 0 in the test on corn (Zea mays) (setting [12]). Further, the “Plant response rating, Crabgrass” value in [4] (setting [10]) is on record as 20. Also, in test [5] (setting [10]), the “Plant response rating, Foxtail, Giant” value came to 20. The “Plant response rating, Lambsquarters” value in test [6] (setting [10]) and in [6] (setting [12]) was 100 in each case. The “Plant response rating, Morningglory” value in test [7] (setting [10]) and in test [7] (setting [12]) was 0 each time. The “Plant response rating, Pigweed” value in [8] (setting [10]) and in test [8] (setting [12]) was 100 throughout. Further, the “Plant response rating, Rice” value in the test on rice (Oryza saliva) (setting [10]) came out at 30; in the test with rice (Oryza saliva) (setting [12]), 0. For the same compound, the “Plant response rating, Velvetleaf” value in test [9] (setting [10]) and in [9] (setting [12]) was 0 each time.
Consider `Cc1ccn(C2CCN(c3cccc(C(F)(F)F)c3)C2=O)n1` (stereo not shown) [Compound 16], for which the “Plant response rating, Surinam grass” value in test [1] (setting [10]) and in test [1] (setting [11]) was 0 throughout. Moreover, the “Plant response rating, Barnyardgrass” value in test [2] (setting [10]) and in test [2] (setting [11]) was 0 each time. The “Plant response rating, Cocklebur” value in [3] (setting [10]) and in test [3] (setting [11]) was 0 each time. Also, the “Plant response rating, Corn” value in the test with corn (Zea mays) (setting [10]) and in the test on corn (Zea mays) (setting [11]) was 0 throughout. The “Plant response rating, Crabgrass” value in test [4] (setting [10]) and in test [4] (setting [11]) was 0 each time. Moreover, the “Plant response rating, Foxtail, Giant” value in test [5] (setting [10]) and in test [5] (setting [11]) was 0 each time. For the same compound, the “Plant response rating, Lambsquarters” value in [6] (setting [10]) and in [6] (setting [11]) was 0 throughout. For the same compound, the “Plant response rating, Morningglory” value in test [7] (setting [10]) and in test [7] (setting [11]) was 0 in each case. Also, the “Plant response rating, Pigweed” value in test [8] (setting [10]) and in test [8] (setting [11]) was 0 in each case. In addition, the “Plant response rating, Rice” value with rice (Oryza saliva) (setting [10]) and with rice (Oryza saliva) (setting [11]) was 0 in each case. In addition, the “Plant response rating, Velvetleaf” value in [9] (setting [10]) came to 20; in test [9] (setting [11]), 0.
For the compound `CC(C)(C)c1ccn(C2CCN(c3cccc(C(F)(F)F)c3)C2=O)n1` (stereo not shown) [Example 3, 3-[3-(1,1-dimethylethyl)-1H-pyrazol-1-yl]-1-[3-(trifluoromethyl)phenyl]-2-pyrrolidinone], the “Plant response rating, Surinam grass” value in test [1] (setting [10]) was 70; in test [1] (setting [11]), 40. Also, the “Plant response rating, Barnyardgrass” value in [2] (setting [10]) was determined as 100; in [2] (setting [11]), 80. In addition, the “Plant response rating, Cocklebur” value in [3] (setting [10]) and in test [3] (setting [11]) was 0 in each case. Further, the results for the “Plant response rating, Corn” value in the test with corn (Zea mays) (setting [10]) and in the test on corn (Zea mays) (setting [11]) were 30 and 0, respectively. Also, the “Plant response rating, Crabgrass” value amounted to 100 in [4] (setting [10]) and 70 in test [4] (setting [11]). Besides, the “Plant response rating, Foxtail, Giant” value in [5] (setting [10]) is recorded as 80; in test [5] (setting [11]) it was 40. Besides, the “Plant response rating, Lambsquarters” value in [6] (setting [10]) and in [6] (setting [11]) was 100 each time. For the same compound, the “Plant response rating, Morningglory” value in [7] (setting [10]) and in test [7] (setting [11]) was 0 each time. Also, the “Plant response rating, Pigweed” value in test [8] (setting [10]) and in test [8] (setting [11]) was 100 each time. The “Plant response rating, Velvetleaf” value in test [9] (setting [10]) and in [9] (setting [11]) was 0 each time.
As for `O=C1C(n2ccc(C3CC3)n2)SCN1c1cccc(C(F)(F)F)c1` (stereo not shown) [Compound 26], the “Plant response rating, Surinam grass” value in test [1] (setting [10]) was found to be 70; in test [1] (setting [11]), 40. The “Plant response rating, Barnyardgrass” value in test [2] (setting [10]) and in test [2] (setting [11]) was 100 each time. For the same compound, the “Plant response rating, Cocklebur” value in [3] (setting [10]) and in [3] (setting [11]) was 0 throughout. The “Plant response rating, Corn” value with corn (Zea mays) (setting [10]) was 70; in the test with corn (Zea mays) (setting [11]), 10. The “Plant response rating, Crabgrass” value in test [4] (setting [10]) and in test [4] (setting [11]) was 100 throughout. For the same compound, the “Plant response rating, Foxtail, Giant” value in [5] (setting [10]) and in test [5] (setting [11]) was 100 in each case. The “Plant response rating, Lambsquarters” value in [6] (setting [10]) and in test [6] (setting [11]) was 100 throughout. In addition, the “Plant response rating, Morningglory” value in test [7] (setting [10]) and in test [7] (setting [11]) was 0 in each case. Moreover, the “Plant response rating, Pigweed” value in test [8] (setting [10]) and in test [8] (setting [11]) was 100 each time. The “Plant response rating, Rice” value is 80 in the test with rice (Oryza saliva) (setting [10]) and 40 in the test with rice (Oryza saliva) (setting [11]). Moreover, the “Plant response rating, Velvetleaf” value in [9] (setting [10]) and in test [9] (setting [11]) was 0 throughout.
Take `CC(C)(C)c1ccn(C2SCN(c3cccc(C(F)(F)F)c3)C2=O)n1` (stereo not shown) [Compound 1]: the “Plant response rating, Surinam grass” value in test [1] (setting [10]) and in [1] (setting [11]) was 0 in each case. Besides, the “Plant response rating, Barnyardgrass” value was 100 in test [2] (setting [10]) and 50 in test [2] (setting [11]). Also, the entries for the “Plant response rating, Cocklebur” value in [3] (setting [10]) and in test [3] (setting [11]) were 40 and 0, respectively. Also, the “Plant response rating, Corn” value in the test on corn (Zea mays) (setting [10]) is listed as 20; in the test on corn (Zea mays) (setting [11]) it was 0. Also, the “Plant response rating, Crabgrass” value in test [4] (setting [10]) came to 100; in test [4] (setting [11]), 0. Moreover, the “Plant response rating, Foxtail, Giant” value in test [5] (setting [10]) was found to be 100; in test [5] (setting [11]) it was 50. Besides, the “Plant response rating, Lambsquarters” value in [6] (setting [10]) and in test [6] (setting [11]) was 100 each time. Besides, the “Plant response rating, Morningglory” value was determined as 40 in test [7] (setting [10]) and 20 in [7] (setting [11]). In addition, the “Plant response rating, Pigweed” value in test [8] (setting [10]) and in test [8] (setting [11]) was 100 each time. The “Plant response rating, Velvetleaf” value in test [9] (setting [10]) was 30; in [9] (setting [11]), 0.
